Key:
L6-myotubes [1] = test: Glucose uptake (3H-2-deoxy-glucose) in differentiated L6-myotubes; format: cell-based; settings: Table 2; glucose uptake assay of Biological Example 1; agonist final concentration 1×10^−5
Description: (§1) L6-myoblasts were grown in Dulbecco's Modified Eagle's Medium (DMEM) containing 4.5 g/l glucose supplemented with 10% fetal bovine serum, 2 mM L-Glutamine, 50 U/ml penicillin, 50 μg/ml streptomycin and 10 mM HEPES. Cells were plated at 1×10^5 cells per ml in 24-well plates. After reaching 90% confluence the cells were grown in medium containing 2% FBS for 7 days where upon cells differentiated into myotubes.
Differentiated L6-myotubes were serum-starved overnight in medium containing 0,5% fatty-acid free BSA and stimulated with agonist, final concentration 1×10^−5. After 1 h 40 min cells were washed with warm, glucose free medium or PBS and another portion of agonist was added to glucose free medium. After 20 min the cells were exposed to 50 nM ^3H-2-deoxy-glucose for another 10 min before washed in ice cold glucose free medium or PBS and lysed in 0.2 M NaOH for 1 h in 60° C.

L6-myotubes [2] = test: Measurement of intracellular cAMP levels in differentiated L6-myotubes; format: cell-based; settings: Table 2; cAMP assay of Biological Example 2; agonist final concentration 1×10^−5
Description: as §1
Differentiated cells were serum-starved overnight and stimulated with agonist, final concentration 1×10^−5, for 15 min in stimulation buffer (HBSS supplemented with 1% BSA, 5 mM HEPES and 1 mM IBMX, pH 7,4) The medium was then aspirated and to end the reaction 100 μL of 95% EtOH was added to each well of a 24-well plate and cells were kept in −20° C. over night. The EtOH was let to evaporate and 500 μL of lysis buffer (1% BSA, 5 mM HEPES and 0,3% Tween-20, pH 7,4) was added to each well before put in −80° C. for 30 min and then kept in −20° C. Intracellular cAMP levels were detected using an alpha screen cAMP kit (6760635D from Perkin Elmer). The activity for each compound is compared to that of isoproterenol.

Structure (SMILES)	Biological example 3 (L6-myotubes [1])	Biological example 4 (L6-myotubes [2])
CC1(C)C[C@@H]([C@@H](O)c2ccccc2F)N1.Cl [Example 34, (S)-((S)-4,4-dimethylazetidin-2-yl)(2-fluorophenyl)methanol hydrochloride]	+ (between 50 and 25%)	− (less than 25%)
CC1(C)C[C@H]([C@H](O)c2ccccc2F)N1.Cl [Example 35, (R)-((R)-4,4-dimethylazetidin-2-yl)(2-fluorophenyl)methanol hydrochloride]	+++ (more than 75% of that of isoproterenol)	+ (between 50 and 25%)
CC1(C)C[C@H]([C@@H](O)c2ccccc2F)N1.Cl [Example 36, (S)-((R)-4,4-dimethylazetidin-2-yl)(2-fluorophenyl)methanol hydrochloride]	+ (between 50 and 25%)	− (less than 25%)
CC1(C)C[C@@H]([C@H](O)c2ccccc2F)N1.Cl [Example 37, (R)-((S)-4,4-dimethylazetidin-2-yl)(2-fluorophenyl)methanol hydrochloride]	− (less than 25%)	− (less than 25%)
CC1(C)C[C@@H]([C@H](O)c2cccc(F)c2)N1.Cl [Example 39, (R)-((S)-4,4-dimethylazetidin-2-yl)(3-fluorophenyl)methanol hydrochloride]	− (less than 25%)	− (less than 25%)
CC1(C)C[C@@H]([C@@H](O)c2cccc(F)c2)N1.Cl [Example 40, (S)-((S)-4,4-dimethylazetidin-2-yl)(3-fluorophenyl)methanol hydrochloride]	+ (between 50 and 25%)	− (less than 25%)
CC1(C)CCC[C@@H]([C@H](O)c2ccccc2F)N1.Cl [Example 41, (R)-((S)-6,6-dimethylpiperidin-2-yl)(2-fluorophenyl)methanol hydrochloride]	+++ (more than 75% of that of isoproterenol)	+ (between 50 and 25%)
CC1(C)CCC[C@@H]([C@@H](O)c2ccccc2F)N1.Cl [Example 42, (S)-((S)-6,6-dimethylpiperidin-2-yl)(2-fluorophenyl)methanol hydrochloride]	+ (between 50 and 25%)	− (less than 25%)
CC1(C)CCC[C@@H]([C@@H](O)c2cccc(F)c2)N1.Cl [Example 43, (S)-((S)-6,6-dimethylpiperidin-2-yl)(3-fluorophenyl)methanol hydrochloride]	+ (between 50 and 25%)	− (less than 25%)
CC1(C)CCC[C@@H]([C@H](O)c2cccc(F)c2)N1.Cl [Example 44, (R)-((S)-6,6-dimethylpiperidin-2-yl)(3-fluorophenyl)methanol hydrochloride]	++ (between 75 and 50%)	− (less than 25%)
CC1(C)C[C@H]([C@H](O)c2cccc(Cl)c2)N1.O=C(O)/C=C\C(=O)O [Example 45, (R)-(3-chlorophenyl)((R)-4,4-dimethylazetidin-2-yl)methanol maleate]	+++ (more than 75% of that of isoproterenol)	− (less than 25%)
CC1(C)C[C@H]([C@@H](O)c2cccc(Cl)c2)N1.O=C(O)/C=C\C(=O)O [Example 46, (S)-(3-chlorophenyl)((R)-4,4-dimethylazetidin-2-yl)methanol maleate]	− (less than 25%)	− (less than 25%)
CC1(C)C[C@@H]([C@H](O)c2cccc(Cl)c2)N1.O=C(O)/C=C\C(=O)O [Example 47, (R)-(3-chlorophenyl)((S)-4,4-dimethylazetidin-2-yl)methanol maleate]	++ (between 75 and 50%)	− (less than 25%)
CC1(C)C[C@@H]([C@@H](O)c2cccc(Cl)c2)N1.O=C(O)/C=C\C(=O)O [Example 48, (S)-(3-chlorophenyl)((S)-4,4-dimethylazetidin-2-yl)methanol maleate]	+ (between 50 and 25%)	− (less than 25%)
CC1(C)CC[C@H]([C@H](O)c2cccc(N)c2F)N1.Cl [Example 49, (R)-(3-amino-2-fluorophenyl)((R)-5,5-dimethylpyrrolidin-2-yl)methanol hydrochloride]	+++ (more than 75% of that of isoproterenol)	− (less than 25%)
CC1(C)CC[C@H]([C@@H](O)c2cccc(N)c2F)N1.Cl [Example 50, (S)-(3-amino-2-fluorophenyl)((R)-5,5-dimethylpyrrolidin-2-yl)methanol hydrochloride]	+ (between 50 and 25%)	− (less than 25%)

Reference: patent publication US20220152004A1, “HETEROCYCLYL(PHENYL)METHANOL COMPOUNDS USEFUL IN THE TREATMENT OF HYPERGLYCAEMIA” (ATROGI AB, priority 2019, published 2022)
